# From US20170298209A1, “USE OF A QUINONE COMPOUND IN BUILDING MATERIALS” (Arkion Life Sciences, LLC, priority 2014, published 2017)
# Experiments:
# [1] = Solubility of the quinone compound in aqueous solution / solvents; assay type: physicochemical
# From the text: The quinone compound can be applied to the substrate in the form of a solution. The solution can be an aqueous or semi-aqueous solution. The quinone compound can be soluble or semi-soluble in the solution. Depending on the pH of the solution the quinone compound can be soluble or partially soluble. The partially soluble quinone can exist as either suspended crystalline particles, fine particles, colloidal particles, etc. […] This compound can exist in solution as particles, crystals, colloids, etc. In some embodiments, the semi-aqueous or non-aqueous solutions containing suitable particles, crystals, colloids, etc. can be used to achieve penetration of a quinone compound into and under the surface of a substrate.
# (§1) A power pole made from southern yellow pine is treated with a sodium salt of 9,10 dihyroxyanthracene (also known as AHQ or anthrahydroquinone) to render the pole resistant to pest and/or fungal damage. The sodium salt of 9,10 dihyroxyanthracene is stable in an oxygen free and high pH environment (e.g., above pH 11). In the high pH solution, the compound has a solubility of around 10% (wt/v). A 10% solution of AHQ is prepared in an aqueous solution having a pH of about 12. The pole is soaked in the bath of 10% AHQ for about 20-30 minutes at 70-80° C. with little or no air exposure. A portion of the AHQ penetrates into the top layer of the pole. The depth of penetration can range from 1 mm to 200 mm.
# (§2) After soaking, the pole is transferred to a water tank where the surface would be neutralized. The water having a nominal pH of about 7. Alternatively, the pole is dried in air without rinsing. AHQ is unstable in the presence of air (e.g., oxygen) unless it is maintained in a high pH solution. If exposed to a lower pH or air (e.g., oxygen), the AHQ can be converted to 9,10 anthraquinone (also known as AQ). AQ is insoluble in almost every solvent including water. Therefore, AQ precipitates out of solution and becomes trapped in the top layer of the pole. AQ forms both on the surface and inside the wood fibers of the upper layers of the pole. This outer layer of pole is now both termite and woodpecker proof. Because anthraquinones can be effective fungicides, the pole is now also fungi proof.
# Pileated woodpeckers = assay: Caged Pileated woodpecker trials (two-choice then one-choice test) with treated and untreated utility pole sections; assay type: in vivo, Pileated woodpecker (Dryocopus pilealus); settings: poles treated with AHQ versus untreated poles; FIGS. 2-4
# Protocol: Overview. A series of caged Pileated woodpecker trials are conducted using power pole segments both untreated and treated with a quinone. The treatment segments contain the quinone compound in a range of concentrations. The quinone compound is also applied by either painting or soaking. The quinone compound is applied in a high pH solution (i.e., in a water soluble form). Thereafter, the segments are treated with a lower pH solution to convert the quinone to a water insoluble form. The bird's preference to nest building excavation for each segment is measured. Both the soaked and painted segments show lower incidence of nesting evacuation. […]
# The initial placement of the treated and the untreated poles in each enclosure was randomly determined. […] At the beginning of each test day, starting on day 2 (0800), woodpecker damage to each pole was measured by collecting and weighing the wood chips that were removed. […] The camera recorded woodpecker activity on poles for during the first two hours of each day during the test period. […]
# The weight of wood chips removed by Pileated woodpeckers follow a three-factor repeated measures design, where observations are repeated on each bird for all three factors: treatment (chemical) time (pre and post-treatment), and pole (control and treated)). All data was analyzed as mixed liner models. […]
# [2] = Stability of AHQ towards air (oxygen) and pH; assay type: physicochemical
# Protocol: as §1
# as §2, with “This outer layer of pole is now both termite and woodpecker proof. Because anthraquinones can be effective fungicides, the pole is now also fungi proof.” left out
compound,measurement,setting,value
"Oc1c2ccccc2c(O)c2ccccc12 [9,10-anthrahydroquinone]",solubility in aqueous solutions,[1]; slightly basic or neutral pH values,only slightly soluble or insoluble
"[Na+].[Na+].[O-]c1c2ccccc2c([O-])c2ccccc12 [AHQ, sodium salt of 9,10 dihyroxyanthracene]",solubility in aqueous solutions,"[1]; high pH (e.g., pH 11 or more)",readily soluble
same,solubility,"[1]; in the high pH solution (e.g., above pH 11)",around 10 % (wt/v)
same,weight of wood chips removed from poles,Pileated woodpeckers,surprisingly less than the weight of wood chips removed from untreated poles
same,stability,"[2]; oxygen free and high pH environment (e.g., above pH 11)",stable
same,stability,"[2]; presence of air (e.g., oxygen), unless maintained in a high pH solution",unstable
"O=C1c2ccccc2C(=O)c2ccccc21 [AQ, 9,10 anthraquinone]",solubility in solvents,[1],insoluble
